Experimental data from patent US9206122B2, “Pesticidal arylpyrrolidines” (BAYER INTELLECTUAL PROPERTY GMBH, priority 2012, dated 2015).

Experiments:
Type in all cases: in vivo
Boophilus microplus = Boophilus microplus injection test; settings: 20 μg/animal, injected into abdomen of adult engorged female ticks; egg deposition monitored after 7 days
Experimental: Boophilus microplus Injectiontest Solvent: dimethyl sulfoxide To produce a suitable preparation of active compound, 10 mg of active compound are dissolved in 0.5 ml solvent, and the concentrate is diluted with solvent to the desired concentration. Five adult engorged female ticks (Boophilus microplus) are injected with 1 μl compound solution into the abdomen. Ticks are transferred into replica plates and incubated in a climate chamber. After 7 days, the egg deposition of fertile eggs is monitored. Eggs where fertility is not visible are stored in glass tubes in a climate chamber till hatching after about 42 days. An efficacy of 100% means that all eggs are infertile; 0% means that all eggs are fertile.

Lucilia cuprina = experiment: whole plant or invertebrate; settings: in Equus caballus, 48 h
Experimental: solvent: dimethyl sulfoxide
10 mg active compound are dissolved in 0.5 ml Dimethylsulfoxid. Serial dilutions are made to obtain the desired rates.
Approximately 20 1st instar larvae of the Australian sheep blowfly (Lucilia cuprina) are transferred into a test tube containing minced horse meat and compound solution of the desired concentration.
After 2 days mortality in % is determined. 100% means that all the larvae have been killed; 0% means that none of the larvae have been killed.

Musca domestica = experiment: whole plant or invertebrate; settings: 48 h
Experimental: (§1) Solvent: dimethyl sulfoxide
To produce a suitable preparation of active compound, 10 mg of active compound are dissolved in 0.5 ml solvent, and the concentrate is diluted with water to the desired concentration.
10 adult house flies (Musca domestica) are transferred into a container, containing a sponge soaked with a mixture of sugar solution and compound solution of the desired concentration.
After 2 days mortality in % is determined. 100% means that all the flies have been killed; 0% means that none of the flies have been killed.

Ctenocephalides felis = experiment: whole plant or invertebrate; settings: po, 48 h
Experimental: Ctenocephalides felis—Oral Test
as §1
To produce a suitable preparation of active compound, 10 mg of active compound are dissolved in 0.5 ml solvent, and the concentrate is diluted with cattle blood to the desired concentration.
Approximately 20 adult unfed cat fleas (Ctenocephalides felis) are placed in flea chambers. The blood chamber, sealed with parafilm on the bottom, are filled with cattle blood supplied with compound solution and placed on the gauze covered top of the flea chamber, so that the fleas are able to suck the blood. The blood chamber is heated to 37° C. whereas the flea chamber is kept at room temperature.
After 2 days mortality in % is determined 100% means that all the fleas have been killed; 0% means that none of the fleas have been killed.

Spodoptera frugiperda = experiment: whole plant or invertebrate; settings: in Zea mays, 168 h
Experimental: Spodoptera frugiperda—Spray Test
(§2) Solvent: 78.0 parts by weight acetone
(§3) • 1.5 parts by weight dimethylformamide Emulsifier: 0.5 parts by weight alkylarylpolyglycolether
To produce a suitable preparation of the active compound, 1 part by weight of active compound is mixed with the stated amount of solvent and emulsifier, and the concentrate is diluted with emulsifier-containing water to the desired concentration.
Maize (Zea mays) leaf sections are sprayed with a preparation of the active ingredient of the desired concentration. Once dry, the leaf sections are infested with fall armyworm larvae (Spodoptera frugiperda).
After 7 days, mortality in % is determined 100% means that all caterpillars have been killed and 0% means that none of the caterpillars have been killed.

Myzus persicae = experiment: whole plant or invertebrate; settings: in Brassica rapa, foliar, 144 h
Experimental: Myzus persicae—Spray Test
as §2, §3
(§4) To produce a suitable preparation of active compound, 1 part by weight of active compound is mixed with the stated amount of solvent and emulsifier, and the concentrate is diluted with emulsifier-containing water to the desired concentration.
Chinese cabbage (Brassica pekinensis) leaf disks infected with all instars of the green peach aphid (Myzus persicae), are sprayed with a preparation of the active ingredient of the desired concentration.
After 6 days, mortality in % is determined 100% means that all aphids have been killed; 0% means that none of the aphids have been killed.

Tetranychus urticae = experiment: whole plant or invertebrate; settings: 144 h
Experimental: Tetranychus urticae—Spray Test, OP-Resistant
as §2, §3, §4
French beans (Phaseolus vulgaris) which are heavily infested with all stages of the two spotted spidermite (Tetranychus urticae), are sprayed with a preparation of the active ingredient of the desired concentration.
After 6 days, mortality in % is determined. 100% means that all spider mites have been killed and 0% means that none of the spider mites have been killed.

Phaedon cochleariae = experiment: whole plant or invertebrate; settings: in Brassica rapa, foliar, 168 h
Experimental: Phaedon cochleariae—Spray Test
Solvent: 78.0 parts by weight of acetone
• 1.5 parts by weight of dimethylformamide Emulsifier: 0.5 parts by weight of alkylaryl polyglycolether
as §4
Chinese cabbage (Brassica pekinensis) leaf-disks are sprayed with a preparation of the active ingredient of the desired concentration. Once dry, the leaf disks are infested with mustard beetle larvae (Phaedon cochleariae).
After 7 days mortality in % is determined. 100% means that all beetle larvae have been killed and 0% means that none of the beetle larvae have been killed.

SMILES: CC(=O)NC1CCc2cc(N3CCC(c4cc(Cl)cc(Cl)c4)(C(F)(F)F)C3O)ccc21 (stereo not drawn) [I-A-1]
- efficacy (100% means that all eggs are infertile) (Boophilus microplus): 100%

SMILES: CCC(=O)NC1CCc2cc(N3CCC(c4cc(Cl)cc(Cl)c4)(C(F)(F)F)C3O)ccc21 (stereo not drawn) [I-A-2]
- mortality at 100 ppm (Lucilia cuprina): 100%
- mortality at 100 ppm (Musca domestica): 80%
- mortality at 100 ppm (Ctenocephalides felis): 100%
- efficacy (100% means that all eggs are infertile) (Boophilus microplus): 100%

SMILES: CC(=O)NC1CCc2cc(N3CCC(c4cc(Cl)c(Cl)c(Cl)c4)(C(F)(F)F)C3O)ccc21 (stereo not drawn) [I-A-13]
- efficacy (100% means that all eggs are infertile) (Boophilus microplus): 100%

SMILES: CC(C)CC(=O)NC1CCc2cc(N3CCC(c4cc(Cl)c(Cl)c(Cl)c4)(C(F)(F)F)C3O)ccc21 (stereo not drawn) [I-A-18]
- efficacy (100% means that all eggs are infertile) (Boophilus microplus): 100%

SMILES: O=C(CC1CC1)NC1CCc2cc(N3CCC(c4cc(Cl)c(Cl)c(Cl)c4)(C(F)(F)F)C3O)ccc21 (stereo not drawn) [I-A-21]
- efficacy (100% means that all eggs are infertile) (Boophilus microplus): 100%

SMILES: O=C(NC1CCc2cc(N3CCC(c4cc(Cl)c(F)c(Cl)c4F)(C(F)(F)F)C3O)ccc21)C1CC1 (stereo not drawn) [I-A-31]
- efficacy (100% means that all eggs are infertile) (Boophilus microplus): 100%

SMILES: O=C(CC1CC1)NC1CCc2cc(N3CCC(c4cc(Cl)c(F)c(Cl)c4F)(C(F)(F)F)C3O)ccc21 (stereo not drawn) [I-A-33]
- efficacy (100% means that all eggs are infertile) (Boophilus microplus): 100%

SMILES: CC(=O)NC1CCc2cc(N3CCC(c4cc(C(F)(F)F)cc(C(F)(F)F)c4)(C(F)(F)F)C3O)ccc21 (stereo not drawn) [I-A-37]
- efficacy (100% means that all eggs are infertile) (Boophilus microplus): 100%

SMILES: CCC(=O)NC1CCc2cc(N3CCC(c4cc(C(F)(F)F)cc(C(F)(F)F)c4)(C(F)(F)F)C3O)ccc21 (stereo not drawn) [I-A-38, N-(5-{3-[3,5-bis(trifluoromethyl)phenyl]-2-hydroxy-3-(trifluoromethyl)pyrrolidin-1-yl}-2,3-dihydro-1H-inden-1-yl)propanamide]
- mortality at 100 g/ha (Spodoptera frugiperda): 100%
- mortality at 100 g/ha (Myzus persicae): 100%
- mortality at 100 g/ha (Tetranychus urticae): 90%
- mortality at 100 g/ha (Phaedon cochleariae): 100%

SMILES: CCCC(=O)NC1CCc2cc(N3CCC(c4cc(C(F)(F)F)cc(C(F)(F)F)c4)(C(F)(F)F)C3O)ccc21 (stereo not drawn) [I-A-40]
- efficacy (100% means that all eggs are infertile) (Boophilus microplus): 100%

SMILES: O=C(NC1CCc2cc(N3CCC(c4cc(Cl)cc(C(F)(F)F)c4)(C(F)(F)F)C3O)ccc21)C1CC1 (stereo not drawn) [I-A-79]
- efficacy (100% means that all eggs are infertile) (Boophilus microplus): 100%

SMILES: O=C(NC1CCc2cc(N3CCC(c4ccc(F)c(C(F)(F)F)c4)(C(F)(F)F)C3O)ccc21)C1CC1 (stereo not drawn) [I-A-115]
- efficacy (100% means that all eggs are infertile) (Boophilus microplus): 100%
